Results on 17 compounds are retold here after patent publication US20260062422A1 (Halda Therapeutics OpCo, Inc., priority 2022, published 2026).

A value given as a limit tells only on which side of the number the result lay.

In one assay the test system is T47D cells. Put plainly: Cellular growth inhibition assay for T47D cells, CellTiter-Glo. Type of assay: cell-based, human. To be noted: Homo sapiens, T47D, 72 h, 72 hours treatment, CellTiter-Glo 2.0 cell viability. Put shortly:
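Cells are plated at 3000/well and allowed 24 h before treatment. Test compound in medium containing 0.5% DMSO is then added, with DMSO-only wells as negative control, and plates are incubated 72 h at 37 °C. ATP luminescence (CellTiter-Glo 2.0) is then fitted to four parameters to derive GI50.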
(In general: Cellular ATP, detected with luciferase, serves as a proxy for viable cell number.)

The subject of assay [1] is T-Rex 293 cell line SC3 cells lacking increased expression of androgen receptor protein. Nature of the assay: Cellular growth inhibition, T-Rex 293 SC3 cells without doxycycline, CellTiter-Glo. Type of assay: cell-based. The conditions noted are these: 72 h, T-Rex 293 SC3 cells not exposed to doxycycline, CellTiter-Glo 2.0. In a few lines: (§1)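 SC3 is a T-Rex 293 clone stably transfected with wild-type androgen receptor in pcDNA4/TO, inducible by 10 ng/mL doxycycline. Cells were grown in phenol red-free DMEM with 10% charcoal-dextran FBS, with or without doxycycline, dosed 24 h after seeding (0.5% DMSO) for 72 h. Viability was read by CellTiter-Glo 2.0 luminescence and GI50 obtained from four-parameter fits.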

Another assay deals with VCaP cells. Put plainly: Cellular growth inhibition assay for VCaP cells, CellTiter-Glo. The conditions noted are these: Homo sapiens, VCaP, 72 h, 72 hours treatment, CellTiter-Glo 2.0. The assay is classed as cell-based, human. Put shortly:
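GI50 values come from four-parameter curve fits of luminescence data normalized to a zero baseline. Compound, in medium with 0.5% DMSO, was added one day after plating and left for 72 h before CellTiter-Glo 2.0 addition.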

The subject of assay [2] is T-Rex 293 cell line SC3 cells having increased expression of androgen receptor protein due to exposure to doxycycline. Put plainly: Cellular growth inhibition, T-Rex 293 SC3 cells with doxycycline (androgen receptor induced), CellTiter-Glo. Type of assay: cell-based. To be noted: 72 h, T-Rex 293 SC3 cells with 10 ng/mL doxycycline (increased androgen receptor expression). Put shortly: as §1

Take `Cc1sc2c(c1C)C(c1ccc(OCCOC3CCN(c4ncc(C(=O)N[C@H]5C(C)(C)[C@H](Oc6ccc(C#N)c(Cl)c6)C5(C)C)cn4)CC3)cc1)=N[C@@H](CC(=O)NC1CC1)c1nnc(C)n1-2` [Compound I-67]: the GI50 in the assay on T47D cells was 500 to 1500 nM; in assay [1], less than 500 nM; in the assay with VCaP cells it was less than 500 nM; in assay [2], less than 500 nM.
For the compound `Cc1sc2c(c1C)C(c1ccc(OC[C@H]3C[C@]4(CCCN(c5ncc(C(=O)N[C@H]6C(C)(C)[C@H](Oc7ccc(C#N)c(Cl)c7)C6(C)C)cn5)C4)C3)cc1)=N[C@@H](Cc1ncco1)c1nnc(C)n1-2` [Compound I-233], the GI50 was less than 500 nM in the assay on T47D cells, 1500 to 3000 nM in assay [1], 500 to 1500 nM in the assay on VCaP cells and less than 500 nM in assay [2].
Turning to `Cc1nc(N2CCC3(CC2)CC2(CC(Oc4ccc(C5=N[C@@H](Cc6ncco6)c6nnc(C)n6-c6sc(C)c(C)c65)cc4)C2)C3)ncc1C(=O)N[C@H]1C(C)(C)[C@H](Oc2ccc(C#N)c(Cl)c2)C1(C)C` [Compound I-673, N-[3-(3-chloro-4-cyano-phenoxy)-2,2,4,4-tetramethyl-cyclobutyl]-4-methyl-2-[2-[4-[(9S)-4,5,13-trimethyl-9-(oxazol-2-ylmethyl)-3-thia-1,8,11,12-tetrazatricyclo[8.3.0.02,6]trideca-2(6),4,7,10,12-pentaen-7-yl]phenoxy]-9-azadispiro [3.1.56.14]dodecan-9-yl]pyrimidine-5-carboxamide], the GI50 was less than 500 nM in the assay on T47D cells, more than 3000 nM in assay [1], less than 500 nM in the assay with VCaP cells and less than 500 nM in assay [2].
For `Cc1sc2c(c1C)C(c1ccc(O[C@H]3CO[C@@]4(CCCN(c5ncc(C(=O)N[C@H]6C(C)(C)[C@H](Oc7ccc(C#N)c(Cl)c7)C6(C)C)cn5)C4)C3)cc1)=N[C@@H](Cc1ncco1)c1nnc(C)n1-2` [Compound I-186], the GI50 in the assay with T47D cells is 500 to 1500 nM; in assay [1], less than 500 nM; in the assay with VCaP cells, less than 500 nM; in assay [2], less than 500 nM.
Regarding `Cc1sc2c(c1C)C(c1ccc(N3CCC(CC4CCN(c5ncc(C(=O)N[C@H]6C(C)(C)[C@H](Oc7ccc(C#N)c(Cl)c7)C6(C)C)cn5)CC4)CC3)cc1)=N[C@H](Cc1ncco1)c1nnc(C)n1-2` [Compound I-211], the GI50 with T47D cells was less than 500 nM; in assay [1], 500 to 1500 nM; with VCaP cells it was less than 500 nM; in assay [2], less than 500 nM.
Regarding `Cc1sc2c(c1C)C(c1ccc(OC3CC4(C3)CC3(CCN(c5ncc(C(=O)N[C@H]6C(C)(C)[C@H](Oc7ccc(C#N)c(Cl)c7)C6(C)C)c(Cl)n5)CC3)C4)cc1)=N[C@@H](Cc1ncco1)c1nnc(C)n1-2` [Compound I-672, 4-chloro-N-((1r,3r)-3-(3-chloro-4-cyanophenoxy)-2,2,4,4-tetramethylcyclobutyl)-2-(2-(4-((S)-2,3,9-trimethyl-6-(oxazol-2-ylmethyl)-6H-thieno[3,2-f][1,2,4]triazolo[4,3-a][1,4]diazepin-4-yl)phenoxy)-9-azadispiro[3.1.56.14]dodecan-9-yl)pyrimidine-5-carboxamide], the GI50 in the assay with T47D cells was less than 500 nM; in assay [1], more than 3000 nM; in the assay on VCaP cells, less than 500 nM; in assay [2], more than 3000 nM.
On to `Cc1sc2c(c1C)C(c1ccc(N3CCC[C@H](C(=O)N4CCC[C@H](c5ncc(C(=O)N[C@H]6C(C)(C)[C@H](Oc7ccc(C#N)c(Cl)c7)C6(C)C)cn5)C4)C3)cc1)=N[C@H](Cc1ncco1)c1nnc(C)n1-2` [Compound I-338], for which the GI50 (in the assay with T47D cells; in assay [1]; in the assay with VCaP cells; in assay [2]) was more than 3000 nM throughout.
For the compound `Cc1sc2c(c1C)C(c1ccc(O[C@H]3C[C@@]4(CCCN(c5ncc(C(=O)N[C@H]6C(C)(C)[C@H](Oc7ccc(C#N)c(Cl)c7)C6(C)C)cn5)C4)C3)cc1)=N[C@@H](C)c1nnc(C)n1-2` [Compound I-392], the GI50 in the assay on T47D cells is 500 to 1500 nM; in assay [1], more than 3000 nM; in the assay with VCaP cells, 500 to 1500 nM; in assay [2] it was less than 500 nM.
For `Cc1sc2c(c1C)C(c1ccc(CN3CCC4(CCCN(c5ncc(C(=O)N[C@H]6C(C)(C)[C@H](Oc7ccc(C#N)c(Cl)c7)C6(C)C)cn5)C4)C3)cc1)=NC(Cc1ncco1)c1nnc(C)n1-2` (some centres unmarked) [Compound I-137], the GI50 with T47D cells was less than 500 nM; in assay [1], 500 to 1500 nM; with VCaP cells, less than 500 nM; in assay [2], less than 500 nM.
As to `Cc1sc2c(c1C)C(c1ccc(C3CC(C4CCN(c5ncc(C(=O)N[C@H]6C(C)(C)[C@H](Oc7ccc(C#N)c(Cl)c7)C6(C)C)cn5)CC4)C3)cc1)=N[C@@H](Cc1ncco1)c1nnc(C)n1-2` (some centres unmarked) [Compound I-397], the GI50 (with T47D cells; in assay [1]; in the assay on VCaP cells; in assay [2]) was more than 3000 nM each time.
As for `COCC[C@@H]1N=C(c2ccc(N3CC(CC4CN(c5cnc(C(=O)N[C@H]6C(C)(C)[C@H](Oc7ccc(C#N)c(Cl)c7)C6(C)C)cn5)C4)C3)cc2)c2c(sc(C)c2C)-n2c(C)nnc21` [Compound I-611], the GI50 in the assay on T47D cells was 1500 to 3000 nM; in assay [1] it was less than 500 nM; in the assay with VCaP cells, less than 500 nM; in assay [2], less than 500 nM.
Consider `Cc1sc2c(c1C)C(c1ccc(N3CC(CC4CN(c5ncc(C(=O)N[C@H]6C(C)(C)[C@H](Oc7ccc(C#N)c(Cl)c7)C6(C)C)cn5)C4)C3)cc1)=N[C@@H](C)c1nnc(C)n1-2` [Compound I-514], for which the GI50 was 500 to 1500 nM in the assay with T47D cells, more than 3000 nM in assay [1], more than 3000 nM with VCaP cells and less than 500 nM in assay [2].
Take `Cc1sc2c(c1C)C(c1ccc(N3CC(C4CCN(c5ncc(C(=O)N[C@H]6C(C)(C)[C@H](Oc7ccc(C#N)c(Cl)c7)C6(C)C)cn5)C4)C3)cc1)=NC1(CC1)c1nnc(C)n1-2` (some centres unmarked) [Compound I-604]: the GI50 was 500 to 1500 nM in the assay on T47D cells, less than 500 nM in assay [1], less than 500 nM in the assay on VCaP cells and less than 500 nM in assay [2].
Regarding `Cc1sc2c(c1C)C(c1ccc(O[C@@H]3CC[C@]4(CCCN(c5ncc(C(=O)N[C@H]6C(C)(C)[C@H](Oc7ccc(C#N)c(Cl)c7)C6(C)C)cn5)C4)C3)cc1)=N[C@@H](Cc1ncco1)c1nnc(C)n1-2` [Compound I-202], the GI50 with T47D cells is 500 to 1500 nM; in assay [1] it was more than 3000 nM; in the assay on VCaP cells, less than 500 nM; in assay [2], less than 500 nM.
On to `Cc1sc2c(c1C)C(c1ccc(OC3CCN(c4ncc(C(=O)N[C@H]5C(C)(C)[C@H](Oc6ccc(C#N)c(Cl)c6)C5(C)C)cn4)CC3)cc1)=N[C@@H](C)c1nnc(C)n1-2` [Compound I-261], for which the concentration for 50% growth inhibition (GI50) with T47D cells is 500 to 1500 nM; in assay [1] it was 1500 to 3000 nM; with VCaP cells, 500 to 1500 nM; in assay [2], less than 500 nM.
`Cc1sc2c(c1C)C(c1ccc(N3CCCC(CN(C)c4ncc(C(=O)N[C@H]5C(C)(C)[C@H](Oc6ccc(C#N)c(Cl)c6)C5(C)C)cn4)C3)cc1)=N[C@@H](Cc1ncco1)c1nnc(C)n1-2` (some centres unmarked) [Compound I-650]: the GI50 in the assay with T47D cells was 500 to 1500 nM; in assay [1], more than 3000 nM; in the assay with VCaP cells, 500 to 1500 nM; in assay [2], less than 500 nM.
With `Cc1sc2c(c1C)C(c1ccc(O[C@H]3CCC4(CCCN(c5ncc(C(=O)N[C@H]6C(C)(C)[C@H](Oc7ccc(C#N)c(Cl)c7)C6(C)C)cn5)C4)C3)cc1)=N[C@@H](Cc1ncco1)c1nnc(C)n1-2` (some centres unmarked) [Compound I-200], the GI50 in the assay with T47D cells was 500 to 1500 nM; in assay [1], 500 to 1500 nM; with VCaP cells, less than 500 nM; in assay [2], less than 500 nM.

The term GI50 denotes the concentration that inhibits growth by half. Higher therefore signals less potent growth inhibition.
